Measurements published in patent publication US10913738B2 (BRISTOL-MYERS SQUIBB COMPANY, priority 2017, dated 2021).
Like-named read-outs stand apart in the source and are kept apart here.

Tests used:
[1] = target: T1, His-GST-TVMV-hRIPK1(1-324) (Homo sapiens, UniProt Q13546); assay: RIPK1 HTRF Binding Assay
T1 construct: The coding region of human RIPK1(1-324) flanked by NdeI site at 5′ end; made in house; host or cells: Spodoptera frugiperda (Sf9) insect cells, baculovirus
T1 sequence (Q13546 1-324): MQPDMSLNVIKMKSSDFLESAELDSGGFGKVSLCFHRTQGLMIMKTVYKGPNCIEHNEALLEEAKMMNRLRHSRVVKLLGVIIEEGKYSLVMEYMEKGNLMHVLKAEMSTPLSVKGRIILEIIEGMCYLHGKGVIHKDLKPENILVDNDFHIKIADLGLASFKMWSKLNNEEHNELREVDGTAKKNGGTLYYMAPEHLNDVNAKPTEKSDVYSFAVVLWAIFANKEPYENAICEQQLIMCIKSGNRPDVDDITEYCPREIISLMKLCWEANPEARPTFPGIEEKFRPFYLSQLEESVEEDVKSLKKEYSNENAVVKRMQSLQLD

[2] = system: MLKL phosphorylation in HT29-L23 human colorectal adenocarcinoma cells; assay: MLKL Phosphorylation High-Content Assay; format: cell-based; conditions: Homo sapiens
Method in brief: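 Cells incubated six hours at 37° C., then phospho-MLKL (S358) immunostained overnight at 4° C. and imaged by high-content microscopy. Phosphorylation quantified as mean circ-ring average intensity ratio; IC50 and Ymax from 4-parameter logistic fits.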

[3] = x marks IC50 class <20 nM, read-out: RIPK1 HTRF binding <20 nM
[4] = x marks IC50 class 20-200 nM, read-out: pMLKL cell activity 20-200 nM
[5] = x marks IC50 class <20 nM, read-out: pMLKL cell activity <20 nM
[6] = x marks IC50 class 20-200 nM, read-out: RIPK1 HTRF binding 20-200 nM
[7] = x marks IC50 class >200 nM, read-out: pMLKL cell activity >200 nM

Cc1nc(C)c(-c2ccn3nc(N)nc3c2)cc1C(=O)NCc1cc(OCC2CC2)ccc1F [Example 290, 5-(2-amino-[1,2,4]triazolo[1,5-a]pyridin-7-yl)-N-(5-(cyclopropylmethoxy)-2-fluorobenzyl)-2,6-dimethylnicotinamide]
IC50 [1, 3]: < 20 nM
IC50 [2, 4]: 20 to 200 nM

COc1ncc(-c2ccn3nc(N)nc3c2)cc1C(=O)N[C@H]1CCN(Cc2ccccc2)C1 [Example 159, 5-{2-amino-[1,2,4]triazolo[1,5-a]pyridin-7-yl}-N-[(3S)-1-benzylpyrrolidin-3-yl]-2-methoxypyridine-3-carboxamide]
IC50 ([1]; x marks IC50 class >200 nM, read-out: RIPK1 HTRF binding >200 nM): > 200 nM
IC50 [2, 4]: 20 to 200 nM

COc1nc(C)c(-c2ccn3nc(N)nc3c2)cc1C(=O)NC(C)c1ccccc1OC(F)(F)F (centres unmarked) [Example 205, 5-{2-amino-[1,2,4]triazolo[1,5-a]pyridin-7-yl}-2-methoxy-6-methyl-N-{1-[2-(trifluoromethoxy)phenyl]ethyl}pyridine-3-carboxamide]
IC50 [1, 3]: < 20 nM
IC50 [2, 5]: < 20 nM

COc1ncc(-c2ccn3nc(N)nc3c2)cc1NC(=O)Cc1ccccc1OC(F)(F)F [Example 417, N-(5-(2-amino-[1,2,4]triazolo[1,5-a]pyridin-7-yl)-2-methoxypyridin-3-yl)-2-(2-(trifluoromethoxy)phenyl)acetamide]
IC50 [1, 6]: 20 to 200 nM
IC50 [2, 7]: > 200 nM

COc1ncc(-c2ccn3nc(N)nc3c2)cc1C(=O)NCc1ccccc1COC(C)C [Example 348, 5-(2-amino-[1,2,4]triazolo[1,5-a]pyridin-7-yl)-N-(2-(isopropoxymethyl)benzyl)-2-methoxynicotinamide]
IC50 [1, 3]: < 20 nM
IC50 [2, 4]: 20 to 200 nM

Cc1nc(C)c(-c2ccn3nc(N)nc3c2)cc1C(=O)NCc1cccnc1OCC1CCC1 [Example 187, 5-{2-amino-[1,2,4]triazolo[1,5-a]pyridin-7-yl}-N-{[2-(cyclobutylmethoxy)pyridin-3-yl]methyl}-2,6-dimethylpyridine-3-carboxamide]
IC50 [1, 6]: 20 to 200 nM
IC50 [2, 4]: 20 to 200 nM

CC(CCNC(=O)c1cc(-c2ccn3nc(N)nc3c2)cnc1Cl)c1ccccc1 (centres unmarked) [Example 169, 5-{2-amino-[1,2,4]triazolo[1,5-a]pyridin-7-yl}-2-chloro-N-(3-phenylbutyl)pyridine-3-carboxamide]
IC50 [1, 6]: 20 to 200 nM
IC50 [2, 7]: > 200 nM

Cc1nc(C)c(-c2ccn3nc(N)nc3c2)cc1C(=O)NCc1c(F)cccc1OCC(F)(F)F [Example 291, 5-(2-amino-[1,2,4]triazolo[1,5-a]pyridin-7-yl)-N-(2-fluoro-6-(2,2,2-trifluoroethoxy)benzyl)-2,6-dimethylnicotinamide]
IC50 [1, 6]: 20 to 200 nM
IC50 [2, 4]: 20 to 200 nM

[2H]C([2H])([2H])[C@@H](NC(=O)c1cc(-c2ccn3nc(N)nc3c2)c(C)nc1C)c1cc(C(F)(F)F)ccc1F [Example 289, (R)-5-(2-amino-[1,2,4]triazolo[1,5-a]pyridin-7-yl)-N-(l-(2-fluoro-5-(trifluoromethyl)phenyl)ethyl-2,2,2-d3)-2,6-dimethylnicotinamide]
IC50 [1, 3]: < 20 nM
IC50 [2, 4]: 20 to 200 nM

COc1ncc(-c2ccn3nc(N)nc3c2)cc1C(=O)NCc1c(F)cccc1OCC1CCC1 [Example 146, 5-{2-amino-[1,2,4]triazolo[1,5-a]pyridin-7-yl}-N-{[2-(cyclobutylmethoxy)-6-fluorophenyl]methyl}-2-methoxypyridine-3-carboxamide]
IC50 [1, 3]: < 20 nM
IC50 [2, 5]: < 20 nM

COc1ncc(-c2ccn3nc(N)nc3c2)cc1C(=O)NCc1ccccc1OC1CCCCC1 [Example 44, 5-{2-Amino-[1,2,4]triazolo[1,5-a]pyridin-7-yl}-N-{[2-(cyclohexyloxy)phenyl]methyl}-2-methoxypyridine-3-carboxamide]
IC50 [1, 3]: < 20 nM
IC50 [2, 4]: 20 to 200 nM

Nc1nc2cc(-c3cnc(N)c(C(=O)NCc4c(F)cccc4OC4CCCC4)c3)ccn2n1 [Example 48, 2-Amino-5-{2-amino-[1,2,4]triazolo[1,5-a]pyridin-7-yl}-N-{[2-(cyclopentyloxy)-6-fluorophenyl]methyl}pyridine-3-carboxamide]
IC50 [1, 3]: < 20 nM
IC50 [2, 5]: < 20 nM

CCOc1ncc(-c2ccn3nc(N)nc3c2)cc1C(=O)NCc1ccccc1Oc1ccccc1 [Example 277, 5-{2-amino-[1,2,4]triazolo[1,5-a]pyridin-7-yl}-2-ethoxy-N-[(2-phenoxyphenyl)methyl]pyridine-3-carboxamide]
IC50 [1, 3]: < 20 nM
IC50 [2, 5]: < 20 nM

CCOc1ncc(-c2ccn3nc(N)nc3c2)cc1C(=O)NCc1ccccc1OCC1CCC1 [Example 268, 5-{2-amino-[1,2,4]triazolo[1,5-a]pyridin-7-yl}-N-{[2-(cyclobutylmethoxy)phenyl]methyl}-2-ethoxypyridine-3-carboxamide]
IC50 [1, 3]: < 20 nM
IC50 [2, 4]: 20 to 200 nM

COc1ncc(C(=O)NCc2c(F)cccc2OCC2CCC2)cc1-c1ccn2nc(N)nc2c1 [Example 25, 5-{2-Amino-[1,2,4]triazolo[1,5-a]pyridin-7-yl}-N-{[2-(cyclobutylmethoxy)-6-fluorophenyl]methyl}-6-methoxypyridine-3-carboxamide]
IC50 [1, 3]: < 20 nM
IC50 [2, 4]: 20 to 200 nM

COc1ncc(-c2ccn3nc(N)nc3c2)cc1C(=O)NCc1cccc(OCC2CC2)c1 [Example 47, 5-{2-Amino-[1,2,4]triazolo[1,5-a]pyridin-7-yl}-N-{[3-(cyclopropylmethoxy)phenyl]methyl}-2-methoxypyridine-3-carboxamide]
IC50 [1, 6]: 20 to 200 nM
IC50 [2, 7]: > 200 nM

Cc1ncc(-c2ccn3nc(N)nc3c2)cc1C(=O)NCc1ncccc1OCC1CC1 [Example 238, 5-{2-amino-[1,2,4]triazolo[1,5-a]pyridin-7-yl}-N-{[3-(cyclopropylmethoxy)pyridin-2-yl]methyl}-2-methylpyridine-3-carboxamide]
IC50 [1, 6]: 20 to 200 nM
IC50 [2, 4]: 20 to 200 nM

COc1ncc(-c2ccn3nc(N)nc3c2)cc1C(=O)NCCC(O)c1ccc(F)cc1 (single isomer, unassigned) [Example 71-1, 5-(2-Amino-[1,2,4]triazolo[1,5-a]pyridin-7-yl)-N-(3-(4-fluorophenyl)-3-hydroxypropyl)-2-methoxynicotinamide]
IC50 [1, 6]: 20 to 200 nM
IC50 [2, 4]: 20 to 200 nM

COc1ncc(-c2ccn3nc(N)nc3c2)cc1C(=O)NCc1ncccc1OCC1CCC1 [Example 37, 5-{2-Amino-[1,2,4]triazolo[1,5-a]pyridin-7-yl}-N-{[3-(cyclobutylmethoxy)pyridin-2-yl]methyl}-2-methoxypyridine-3-carboxamide]
IC50 [1, 3]: < 20 nM
IC50 [2, 4]: 20 to 200 nM

Nc1nc2cc(-c3cnc(Cl)c(C(=O)NCc4cc(OC(F)(F)F)ccc4F)c3)ccn2n1 [Example 166, 5-{2-amino-[1,2,4]triazolo[1,5-a]pyridin-7-y1}-2-chloro-N-{[2-fluoro-5-(trifluoromethoxy)phenyl]methyl}pyridine-3-carboxamide]
IC50 [1, 6]: 20 to 200 nM
IC50 [2, 7]: > 200 nM

Cc1ncc(-c2ccn3nc(N)nc3c2)cc1C(=O)NCc1ccccc1OC1CCC(C)C1 (centres unmarked) [Example 237, 5-{2-amino-[1,2,4]triazolo[1,5-a]pyridin-7-yl}-2-methyl-N-({2-[(3-methylcyclopentyl)oxy]phenyl}methyl)pyridine-3-carboxamide]
IC50 [1, 3]: < 20 nM
IC50 [2, 5]: < 20 nM

[2H]C([2H])([2H])Oc1ncc(-c2ccn3nc(N)nc3c2)cc1C(=O)NCc1ccccc1OC(F)(F)F [Example 90, 5-{2-amino-[1,2,4]triazolo[1,5-a]pyridin-7-yl}-2-(deutero)methoxy-N-{[2-(trifluoromethoxy)phenyl]methyl}pyridine-3-carboxamide]
IC50 [1, 3]: < 20 nM
IC50 [2, 4]: 20 to 200 nM
